In paper PMC9571063 (Molecules, 2022):

Columns and labels:
GRK3 = target: T1, GRK3 (Homo sapiens, UniProt P35626); experiment: KINOMEscan; assay type: binding; conditions: read-out: Percent Control
T1 construct: purchased Eurofins DiscoverX KINOMEscan (scanMAX 468)

PLK2 = target: T2, PLK2 (Homo sapiens, UniProt Q9NYY3); experiment: KINOMEscan; assay type: binding; conditions: read-out: Percent Control
T2 construct: purchased Eurofins DiscoverX KINOMEscan (scanMAX 468)

EGFR(L861Q) = target: T3, EGFR(L861Q) (Homo sapiens, UniProt P00533, L861Q); experiment: KINOMEscan; assay type: binding; conditions: read-out: Percent Control
T3 construct: purchased Eurofins DiscoverX KINOMEscan (scanMAX 468)

STK36 = target: T4, STK36 (Homo sapiens, UniProt Q9NRP7); experiment: KINOMEscan; assay type: binding; conditions: read-out: Percent Control
T4 construct: purchased Eurofins DiscoverX KINOMEscan (scanMAX 468)

EPHA6 = target: T5, EPHA6 (Homo sapiens, UniProt Q9UF33); experiment: KINOMEscan; assay type: binding; conditions: read-out: Percent Control
T5 construct: purchased Eurofins DiscoverX KINOMEscan (scanMAX 468)

FLT3-autoinhibited = target: T6, FLT3-autoinhibited (Homo sapiens, UniProt P36888); experiment: KINOMEscan; assay type: binding; conditions: read-out: Percent Control
T6 construct: purchased Eurofins DiscoverX KINOMEscan (scanMAX 468)

[1] = target: T7, ABL1(F317L)-phosphorylated (Homo sapiens, UniProt P00519, F317L); experiment: KINOMEscan; assay type: binding; conditions: read-out: Percent Control
T7 construct: purchased Eurofins DiscoverX KINOMEscan (scanMAX 468)

panel of 468 kinases = experiment: KINOMEscan, whole panel selectivity score; assay type: binding, human; conditions: 1 µM; non-mutant kinases with %Ctrl < 25 / 403 non-mutant kinases tested
ABL1-phosphorylated = target: T8, ABL1-phosphorylated (Homo sapiens, UniProt P00519); experiment: KINOMEscan; assay type: binding; conditions: read-out: Percent Control
T8 construct: purchased Eurofins DiscoverX KINOMEscan (scanMAX 468)

PRKCI = target: T9, PRKCI (Homo sapiens, UniProt P41743); experiment: KINOMEscan; assay type: binding; conditions: read-out: Percent Control
T9 construct: purchased Eurofins DiscoverX KINOMEscan (scanMAX 468)

[2] = target: T10, RSK4(Kin.Dom.2-C-terminal) (Homo sapiens, UniProt Q9UK32); experiment: KINOMEscan; assay type: binding; conditions: read-out: Percent Control
T10 construct: RSK4(Kin.Dom.2-C-terminal); purchased Eurofins DiscoverX KINOMEscan (scanMAX 468)

DAPK1 = target: T11, DAPK1 (Homo sapiens, UniProt P53355); experiment: KINOMEscan; assay type: binding; conditions: read-out: Percent Control
T11 construct: purchased Eurofins DiscoverX KINOMEscan (scanMAX 468)

TLK1 = target: T12, TLK1 (Homo sapiens, UniProt Q9UKI8); experiment: KINOMEscan; assay type: binding; conditions: read-out: Percent Control
T12 construct: purchased Eurofins DiscoverX KINOMEscan (scanMAX 468)

YANK1 = target: T13, YANK1 (Homo sapiens, UniProt Q8WU08); experiment: KINOMEscan; assay type: binding; conditions: read-out: Percent Control
T13 construct: purchased Eurofins (KINOMEscan, DiscoverX)

EPHA8 = target: T14, EPHA8 (Homo sapiens, UniProt P29322); experiment: KINOMEscan; assay type: binding; conditions: read-out: Percent Control
T14 construct: purchased Eurofins DiscoverX KINOMEscan (scanMAX 468)

NEK9 = target: T15, NEK9 (Homo sapiens, UniProt Q8TD19); experiment: KINOMEscan; assay type: binding; conditions: read-out: Percent Control
T15 construct: purchased Eurofins DiscoverX KINOMEscan (scanMAX 468)

ABL1-nonphosphorylated = target: T16, ABL1-nonphosphorylated (Homo sapiens, UniProt P00519); experiment: KINOMEscan; assay type: binding; conditions: read-out: Percent Control
T16 construct: purchased Eurofins DiscoverX KINOMEscan (scanMAX 468)

STK35 = target: T17, STK35 (Homo sapiens, UniProt Q8TDR2); experiment: KINOMEscan; assay type: binding; conditions: read-out: Percent Control
T17 construct: purchased Eurofins DiscoverX KINOMEscan (scanMAX 468)

HASPIN = target: T18, HASPIN (Homo sapiens, UniProt Q8TF76); experiment: KINOMEscan; assay type: binding; conditions: read-out: Percent Control
T18 construct: purchased Eurofins DiscoverX KINOMEscan (scanMAX 468)

KIT(A829P) = target: T19, KIT(A829P) (Homo sapiens, UniProt P10721, A829P); experiment: KINOMEscan; assay type: binding; conditions: read-out: Percent Control
T19 construct: purchased Eurofins DiscoverX KINOMEscan (scanMAX 468)

PDGFRA = target: T20, PDGFRA (Homo sapiens, UniProt P16234); experiment: KINOMEscan; assay type: binding; conditions: read-out: Percent Control
T20 construct: purchased Eurofins DiscoverX KINOMEscan (scanMAX 468)

CSNK1A1L = target: T21, CSNK1A1L (Homo sapiens, UniProt Q8N752); experiment: KINOMEscan; assay type: binding; conditions: read-out: Percent Control
T21 construct: purchased Eurofins DiscoverX KINOMEscan (scanMAX 468)

MERTK = target: T22, MERTK (Homo sapiens, UniProt Q12866); experiment: KINOMEscan; assay type: binding; conditions: read-out: Percent Control
T22 construct: purchased Eurofins DiscoverX KINOMEscan (scanMAX 468)

FGR = target: T23, FGR (Homo sapiens, UniProt P09769); experiment: KINOMEscan; assay type: binding; conditions: read-out: Percent Control
T23 construct: purchased Eurofins DiscoverX KINOMEscan (scanMAX 468)

[3] = target: T24, ABL1(E255K)-phosphorylated (Homo sapiens, UniProt P00519, E255K); experiment: KINOMEscan; assay type: binding; conditions: read-out: Percent Control
T24 construct: purchased Eurofins DiscoverX KINOMEscan (scanMAX 468)

JNK1 = target: T25, JNK1 (Homo sapiens, UniProt P45983); experiment: KINOMEscan; assay type: binding; conditions: read-out: Percent Control
T25 construct: purchased Eurofins DiscoverX KINOMEscan (scanMAX 468)

GRK7 = target: T26, GRK7 (Homo sapiens, UniProt Q8WTQ7); experiment: KINOMEscan; assay type: binding; conditions: read-out: Percent Control
T26 construct: purchased Eurofins DiscoverX KINOMEscan (scanMAX 468)

MEK3 = target: T27, MEK3 (Homo sapiens, UniProt P46734); experiment: KINOMEscan; assay type: binding; conditions: read-out: Percent Control
T27 construct: purchased Eurofins DiscoverX KINOMEscan (scanMAX 468)

ULK1 = target: T28, ULK1 (Homo sapiens, UniProt O75385); experiment: KINOMEscan; assay type: binding; conditions: read-out: Percent Control
T28 construct: purchased Eurofins DiscoverX KINOMEscan (scanMAX 468)

FES = target: T29, FES (Homo sapiens, UniProt P07332); experiment: KINOMEscan; assay type: binding; conditions: read-out: Percent Control
T29 construct: purchased Eurofins DiscoverX KINOMEscan (scanMAX 468)

ACVR2B = target: T30, ACVR2B (Homo sapiens, UniProt Q13705); experiment: KINOMEscan; assay type: binding; conditions: read-out: Percent Control
T30 construct: purchased Eurofins DiscoverX KINOMEscan (scanMAX 468)

PKMYT1 = target: T31, PKMYT1 (Homo sapiens, UniProt Q99640); experiment: KINOMEscan; assay type: binding; conditions: read-out: Percent Control
T31 construct: purchased Eurofins DiscoverX KINOMEscan (scanMAX 468)

OSR1 = target: T32, OSR1 (Homo sapiens, UniProt O95747); experiment: KINOMEscan; assay type: binding; conditions: read-out: Percent Control
T32 construct: purchased Eurofins DiscoverX KINOMEscan (scanMAX 468)

ARK5 = target: T33, ARK5 (Homo sapiens, UniProt O60285); experiment: KINOMEscan; assay type: binding; conditions: read-out: Percent Control
T33 construct: purchased Eurofins DiscoverX KINOMEscan (scanMAX 468)

[4] = target: T34, ABL1(Q252H)-nonphosphorylated (Homo sapiens, UniProt P00519, Q252H); experiment: KINOMEscan; assay type: binding; conditions: read-out: Percent Control
T34 construct: purchased Eurofins DiscoverX KINOMEscan (scanMAX 468)

DCAMKL1 = target: T35, DCAMKL1 (Homo sapiens, UniProt O15075); experiment: KINOMEscan; assay type: binding; conditions: read-out: Percent Control
T35 construct: purchased Eurofins DiscoverX KINOMEscan (scanMAX 468)

DCAMKL3 = target: T36, DCAMKL3 (Homo sapiens, UniProt Q9C098); experiment: KINOMEscan; assay type: binding; conditions: read-out: Percent Control
T36 construct: purchased Eurofins DiscoverX KINOMEscan (scanMAX 468)

MARK1 = target: T37, MARK1 (Homo sapiens, UniProt Q9P0L2); experiment: KINOMEscan; assay type: binding; conditions: read-out: Percent Control
T37 construct: purchased Eurofins DiscoverX KINOMEscan (scanMAX 468)

PRP4 = target: T38, PRP4 (Homo sapiens, UniProt Q13523); experiment: KINOMEscan; assay type: binding; conditions: read-out: Percent Control
T38 construct: purchased Eurofins DiscoverX KINOMEscan (scanMAX 468)

LATS1 = target: T39, LATS1 (Homo sapiens, UniProt O95835); experiment: KINOMEscan; assay type: binding; conditions: read-out: Percent Control
T39 construct: purchased Eurofins DiscoverX KINOMEscan (scanMAX 468)

MAP4K4 = target: T40, MAP4K4 (Homo sapiens, UniProt O95819); experiment: KINOMEscan; assay type: binding; conditions: read-out: Percent Control
T40 construct: purchased Eurofins DiscoverX KINOMEscan (scanMAX 468)

TAOK1 = target: T41, TAOK1 (Homo sapiens, UniProt Q7L7X3); experiment: KINOMEscan; assay type: binding; conditions: read-out: Percent Control
T41 construct: purchased Eurofins DiscoverX KINOMEscan (scanMAX 468)

AKT2 = target: T42, AKT2 (Homo sapiens, UniProt P31751); experiment: KINOMEscan; assay type: binding; conditions: read-out: Percent Control
T42 construct: purchased Eurofins DiscoverX KINOMEscan (scanMAX 468)

T19 sequence (P10721 26-976 A829P): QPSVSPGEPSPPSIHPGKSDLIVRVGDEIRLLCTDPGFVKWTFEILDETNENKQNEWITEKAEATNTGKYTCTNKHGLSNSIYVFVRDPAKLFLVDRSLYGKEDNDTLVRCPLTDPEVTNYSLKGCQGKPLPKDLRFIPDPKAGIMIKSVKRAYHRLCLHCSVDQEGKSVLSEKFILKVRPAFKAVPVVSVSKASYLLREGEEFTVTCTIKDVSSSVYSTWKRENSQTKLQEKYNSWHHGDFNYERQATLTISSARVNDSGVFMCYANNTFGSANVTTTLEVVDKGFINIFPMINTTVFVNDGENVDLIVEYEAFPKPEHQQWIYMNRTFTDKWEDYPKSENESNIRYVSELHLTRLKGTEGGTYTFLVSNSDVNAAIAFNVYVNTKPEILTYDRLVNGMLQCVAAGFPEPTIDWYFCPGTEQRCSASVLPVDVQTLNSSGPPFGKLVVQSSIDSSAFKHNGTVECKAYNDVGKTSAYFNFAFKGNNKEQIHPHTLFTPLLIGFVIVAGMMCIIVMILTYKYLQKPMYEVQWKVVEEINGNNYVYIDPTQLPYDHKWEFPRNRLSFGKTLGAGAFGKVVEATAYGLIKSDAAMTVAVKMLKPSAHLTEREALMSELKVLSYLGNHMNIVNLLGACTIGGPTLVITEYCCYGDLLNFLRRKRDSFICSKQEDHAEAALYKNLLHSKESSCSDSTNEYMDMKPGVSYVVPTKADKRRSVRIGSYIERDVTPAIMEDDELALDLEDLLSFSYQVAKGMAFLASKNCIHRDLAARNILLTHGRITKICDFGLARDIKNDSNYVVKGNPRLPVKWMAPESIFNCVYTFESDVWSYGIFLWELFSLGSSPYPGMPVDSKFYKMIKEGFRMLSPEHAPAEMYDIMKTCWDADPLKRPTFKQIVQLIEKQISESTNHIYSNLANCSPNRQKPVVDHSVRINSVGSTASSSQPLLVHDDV
T25 sequence (P45983 whole entry): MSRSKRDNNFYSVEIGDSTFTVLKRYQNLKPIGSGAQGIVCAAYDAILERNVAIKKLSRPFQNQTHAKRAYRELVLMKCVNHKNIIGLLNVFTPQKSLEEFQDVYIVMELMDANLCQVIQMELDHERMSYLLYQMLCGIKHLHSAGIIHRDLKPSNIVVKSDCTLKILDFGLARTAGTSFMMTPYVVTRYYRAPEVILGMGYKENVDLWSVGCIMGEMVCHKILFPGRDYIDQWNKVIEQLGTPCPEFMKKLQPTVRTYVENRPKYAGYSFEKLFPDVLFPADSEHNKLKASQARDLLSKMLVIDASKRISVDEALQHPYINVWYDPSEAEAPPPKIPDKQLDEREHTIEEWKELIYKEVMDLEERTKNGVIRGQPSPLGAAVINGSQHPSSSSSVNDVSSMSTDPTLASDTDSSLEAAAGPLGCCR
T4 sequence (Q9NRP7 whole entry): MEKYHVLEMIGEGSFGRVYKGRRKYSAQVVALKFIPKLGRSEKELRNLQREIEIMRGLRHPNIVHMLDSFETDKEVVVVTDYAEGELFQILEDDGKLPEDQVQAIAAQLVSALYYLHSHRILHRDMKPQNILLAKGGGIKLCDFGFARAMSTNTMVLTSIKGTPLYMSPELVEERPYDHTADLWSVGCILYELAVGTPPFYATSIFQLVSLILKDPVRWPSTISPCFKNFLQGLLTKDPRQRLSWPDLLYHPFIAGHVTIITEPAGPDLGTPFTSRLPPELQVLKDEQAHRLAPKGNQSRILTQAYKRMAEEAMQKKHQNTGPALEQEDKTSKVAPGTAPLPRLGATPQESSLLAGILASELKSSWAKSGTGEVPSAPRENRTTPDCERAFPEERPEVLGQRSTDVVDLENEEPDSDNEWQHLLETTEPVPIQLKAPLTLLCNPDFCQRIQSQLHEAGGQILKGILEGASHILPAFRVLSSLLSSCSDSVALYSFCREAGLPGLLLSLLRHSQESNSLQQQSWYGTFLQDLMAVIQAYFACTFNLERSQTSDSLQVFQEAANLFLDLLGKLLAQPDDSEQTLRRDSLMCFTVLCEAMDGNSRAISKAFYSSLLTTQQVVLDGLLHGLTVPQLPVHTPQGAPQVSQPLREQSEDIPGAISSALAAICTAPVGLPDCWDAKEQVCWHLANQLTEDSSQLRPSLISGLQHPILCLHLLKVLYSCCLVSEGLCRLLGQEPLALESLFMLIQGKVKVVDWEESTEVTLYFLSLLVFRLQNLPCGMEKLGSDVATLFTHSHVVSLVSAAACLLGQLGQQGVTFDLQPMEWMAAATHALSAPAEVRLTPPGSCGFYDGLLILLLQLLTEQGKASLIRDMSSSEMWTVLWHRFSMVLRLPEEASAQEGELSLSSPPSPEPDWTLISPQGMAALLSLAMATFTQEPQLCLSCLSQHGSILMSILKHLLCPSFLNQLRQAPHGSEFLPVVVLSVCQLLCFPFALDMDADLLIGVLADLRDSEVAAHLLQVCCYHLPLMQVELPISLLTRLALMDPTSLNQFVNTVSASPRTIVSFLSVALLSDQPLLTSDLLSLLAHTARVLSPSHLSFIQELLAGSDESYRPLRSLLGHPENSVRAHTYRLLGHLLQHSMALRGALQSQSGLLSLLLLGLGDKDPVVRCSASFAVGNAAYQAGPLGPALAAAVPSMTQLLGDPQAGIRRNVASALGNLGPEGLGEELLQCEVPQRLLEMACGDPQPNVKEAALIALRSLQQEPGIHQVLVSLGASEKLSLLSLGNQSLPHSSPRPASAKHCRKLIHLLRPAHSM
T37 sequence (Q9P0L2 whole entry): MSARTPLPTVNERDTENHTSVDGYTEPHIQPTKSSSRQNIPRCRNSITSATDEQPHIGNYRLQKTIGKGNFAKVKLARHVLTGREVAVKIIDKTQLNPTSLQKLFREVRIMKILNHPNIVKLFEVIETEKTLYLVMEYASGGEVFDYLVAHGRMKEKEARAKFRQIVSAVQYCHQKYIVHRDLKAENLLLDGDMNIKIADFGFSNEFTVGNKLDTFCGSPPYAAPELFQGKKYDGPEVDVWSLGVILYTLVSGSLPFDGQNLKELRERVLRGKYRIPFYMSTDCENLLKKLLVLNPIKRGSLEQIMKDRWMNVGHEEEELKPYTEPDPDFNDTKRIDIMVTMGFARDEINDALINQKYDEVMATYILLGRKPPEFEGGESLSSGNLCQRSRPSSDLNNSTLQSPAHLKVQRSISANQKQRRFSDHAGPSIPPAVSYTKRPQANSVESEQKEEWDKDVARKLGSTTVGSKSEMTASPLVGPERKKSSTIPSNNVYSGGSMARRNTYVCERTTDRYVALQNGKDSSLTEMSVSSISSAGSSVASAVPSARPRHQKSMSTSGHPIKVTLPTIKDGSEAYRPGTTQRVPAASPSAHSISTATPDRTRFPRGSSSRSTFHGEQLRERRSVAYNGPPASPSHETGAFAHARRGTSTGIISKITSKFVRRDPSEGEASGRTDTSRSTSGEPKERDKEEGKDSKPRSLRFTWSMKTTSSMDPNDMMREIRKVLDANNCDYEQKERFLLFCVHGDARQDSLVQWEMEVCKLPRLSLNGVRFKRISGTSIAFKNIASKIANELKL
T32 sequence (O95747 whole entry): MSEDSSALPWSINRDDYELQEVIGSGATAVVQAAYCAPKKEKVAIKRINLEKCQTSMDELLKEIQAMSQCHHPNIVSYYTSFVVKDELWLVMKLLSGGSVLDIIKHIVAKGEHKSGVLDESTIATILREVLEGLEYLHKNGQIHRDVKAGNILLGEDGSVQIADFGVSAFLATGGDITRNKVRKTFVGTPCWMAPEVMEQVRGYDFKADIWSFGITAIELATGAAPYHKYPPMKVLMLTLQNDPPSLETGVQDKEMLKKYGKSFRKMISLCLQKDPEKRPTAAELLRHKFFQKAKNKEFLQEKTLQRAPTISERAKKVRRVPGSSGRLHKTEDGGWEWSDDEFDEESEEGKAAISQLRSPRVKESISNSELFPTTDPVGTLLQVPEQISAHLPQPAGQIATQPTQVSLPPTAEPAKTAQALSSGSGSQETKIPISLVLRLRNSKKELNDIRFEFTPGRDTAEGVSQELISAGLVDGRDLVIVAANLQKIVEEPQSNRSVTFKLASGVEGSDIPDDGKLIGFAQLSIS
T31 sequence (Q99640 whole entry): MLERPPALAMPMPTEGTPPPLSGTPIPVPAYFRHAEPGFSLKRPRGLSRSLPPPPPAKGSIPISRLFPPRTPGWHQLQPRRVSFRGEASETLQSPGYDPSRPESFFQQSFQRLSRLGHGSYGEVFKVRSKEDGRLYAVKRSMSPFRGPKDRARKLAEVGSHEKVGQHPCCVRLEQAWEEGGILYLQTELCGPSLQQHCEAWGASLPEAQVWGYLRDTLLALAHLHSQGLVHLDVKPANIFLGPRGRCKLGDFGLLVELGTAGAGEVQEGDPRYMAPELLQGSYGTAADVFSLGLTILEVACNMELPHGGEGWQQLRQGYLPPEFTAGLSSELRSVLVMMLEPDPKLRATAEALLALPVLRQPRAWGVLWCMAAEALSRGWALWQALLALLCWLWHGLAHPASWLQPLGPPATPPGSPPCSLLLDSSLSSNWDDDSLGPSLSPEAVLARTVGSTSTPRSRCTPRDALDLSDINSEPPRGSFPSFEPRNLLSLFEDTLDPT
T30 sequence (Q13705 19-512): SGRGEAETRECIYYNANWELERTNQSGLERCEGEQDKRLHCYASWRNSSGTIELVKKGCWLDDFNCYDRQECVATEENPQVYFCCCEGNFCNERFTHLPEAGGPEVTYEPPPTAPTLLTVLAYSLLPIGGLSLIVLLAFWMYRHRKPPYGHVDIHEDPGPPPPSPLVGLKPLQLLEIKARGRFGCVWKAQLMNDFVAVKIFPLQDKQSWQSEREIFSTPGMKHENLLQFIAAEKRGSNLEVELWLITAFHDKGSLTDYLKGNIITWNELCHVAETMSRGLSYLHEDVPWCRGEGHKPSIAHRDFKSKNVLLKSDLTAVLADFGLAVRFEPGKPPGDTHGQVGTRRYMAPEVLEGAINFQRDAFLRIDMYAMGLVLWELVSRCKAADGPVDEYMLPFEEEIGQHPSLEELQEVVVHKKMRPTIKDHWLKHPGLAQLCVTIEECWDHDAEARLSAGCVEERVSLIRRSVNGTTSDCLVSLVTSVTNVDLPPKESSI

Cc1ccc(-n2cc(COc3cccc4cnc(Nc5cccc(Cl)c5)nc34)nn2)c([N+](=O)[O-])c1 [DB18]
remaining binding at 1 µM (GRK3): 89% | remaining binding at 1 µM (PLK2): 100% | remaining binding at 1 µM (EGFR(L861Q)): 99% | remaining binding at 1 µM (STK36): 100% | remaining binding at 1 µM (EPHA6): 100% | remaining binding at 1 µM (FLT3-autoinhibited): 100% | remaining binding at 1 µM [1]: 100% | S-Score(25) (panel of 468 kinases): 0.015 | remaining binding at 1 µM (ABL1-phosphorylated): 98% | remaining binding at 1 µM (PRKCI): 96% | remaining binding at 1 µM [2]: 100% | remaining binding at 1 µM (DAPK1): 100% | remaining binding at 1 µM (TLK1): 100% | remaining binding at 1 µM (YANK1): 100% | remaining binding at 1 µM (EPHA8): 100% | remaining binding at 1 µM (NEK9): 100% | remaining binding at 1 µM (ABL1-nonphosphorylated): 85% | remaining binding at 1 µM (STK35): 100% | remaining binding at 1 µM (HASPIN): 72% | remaining binding at 1 µM (KIT(A829P)): 100% | remaining binding at 1 µM (PDGFRA): 100% | remaining binding at 1 µM (CSNK1A1L): 100% | remaining binding at 1 µM (MERTK): 100% | remaining binding at 1 µM (FGR): 96% | remaining binding at 1 µM [3]: 97% | remaining binding at 1 µM (JNK1): 93% | remaining binding at 1 µM (GRK7): 100% | remaining binding at 1 µM (MEK3): 98% | remaining binding at 1 µM (ULK1): 100% | remaining binding at 1 µM (FES): 100% | remaining binding at 1 µM (ACVR2B): 100% | remaining binding at 1 µM (PKMYT1): 62% | remaining binding at 1 µM (OSR1): 100% | remaining binding at 1 µM (ARK5): 100% | remaining binding at 1 µM [4]: 88% | remaining binding at 1 µM (DCAMKL1): 88% | remaining binding at 1 µM (DCAMKL3): 100% | remaining binding at 1 µM (MARK1): 99% | remaining binding at 1 µM (PRP4): 100% | remaining binding at 1 µM (LATS1): 99% | remaining binding at 1 µM (MAP4K4): 100% | remaining binding at 1 µM (TAOK1): 100% | remaining binding at 1 µM (AKT2): 100%
